Source: US11560400B2, “Salts of diphosphate phosphoramidate of nucleosides as anticancer compounds” (NuCana plc, priority 2017, dated 2023)
Where a name gives a salt, the structure may show the parent alone. Read-outs that look alike come from different tables or passages of the source.

What was measured:
K562 = assay: CellTiterGlo cell viability assay, K562; assay type: cell-based; settings: for inhibition at 198 µM: read-out: Top Inh; for EC50: read-out: Ab EC50
Method: (§1) A subset of compounds of the invention were assayed for their cytotoxic activity in an array of different solid tumours and haematological malignancies using the following assay.
(§2) In vitro viability assay were performed to assess the effects of compounds on cell viability in selected cell lines over 72 h using the CellTiterGlo (CTG, Promega-G7573) assay. The tests were performed in duplicates with treatment of compounds at 9 points, 3.16 folds titration in 96 well plates over ˜72 h. The compound starting concentrations were 198 μM. Cell viability assay using CellTiterGlo in 96-well plate were performed. Compound treatment 72 h, standard growth conditions, duplicates. Compounds were dissolved to 40 mM with thawed […]. Compounds were serially diluted at 3.16 fold in thawed DMSO, and warmed to 37° C. before being dissolved in media (2 μL+200 μL). After compounds were dissolved in media, media containing compounds were warmed to 37° C. in incubator and then compounds in media were added to cell plates (50 μL+50 μL) in duplicates. The compounds' final concentrations were from 198 μM to 19.8 nM. All compound solubilities were checked and recorded again, then the plates were transferred to CO2 tissue culture incubator immediately and incubated for 3 days. DMSO final concentration is 0.5%. The parent nucleoside in each case was tested as a comparator, as was an exemplary ProTide. The drugs of the ProTide class that were tested were as follows:
(§3) The following cell lines were tested and are referred to in the Table 1 below:
(§4) In Tables 2, 3 and 4, ‘Ab EC50’ refers to the absolute EC50 and ‘Top inhibit’ refers to the percentage inhibition achieved at the highest concentration tested.

RL = assay: CellTiterGlo cell viability assay, RL; assay type: cell-based; settings: 72 h; for EC50: read-out: Ab EC50; for inhibition at 198 µM: read-out: Top Inh
Method: as §1, §2, §3, §4

HL-60 = assay: CellTiterGlo cell viability assay, HL-60; assay type: cell-based; settings: HL-60, 72 h; for EC50: read-out: Ab EC50; for inhibition at 198 µM: read-out: Top Inh
Method: as §1, §2, §3, §4

Mia-Pa-Ca-2 = assay: CellTiterGlo cell viability assay, Mia-Pa-Ca-2; assay type: cell-based; settings: Homo sapiens, MIA PaCa-2, Mia-Pa-Ca-2, 72 h
Method: as §1, §2, §3, §4

HT29 = assay: CellTiterGlo cell viability assay, HT29; assay type: cell-based; settings: HT29, 72 h; for EC50: read-out: Ab EC50; for inhibition at 198 µM: read-out: Top Inhibit
Method: as §1, §2, §3, §4

MOLT-4 = assay: CellTiterGlo cell viability assay, MOLT-4; assay type: cell-based; settings: MOLT-4, 72 h; for inhibition at 198 µM: read-out: Top Inh; for EC50: read-out: Ab EC50
Method: as §1, §2, §3, §4

KG-1 = assay: CellTiterGlo cell viability assay, KG-1; assay type: cell-based; settings: KG-1, 72 h; for EC50: Table 4 classes, read-out: Ab EC50; for inhibition at 198 µM: read-out: Top Inhibit
Method: as §1, §2, §3, §4

RPMI-8226 = assay: CellTiterGlo cell viability assay, RPMI-8226; assay type: cell-based, Human; settings: RPMI-8226, 72 h; for EC50: Table 4 classes, read-out: Ab EC50; for inhibition at 198 µM: read-out: Top Inh
Method: as §1, §2, §3, §4

HepG2 = assay: CellTiterGlo cell viability assay, HepG2; assay type: cell-based; settings: HepG2, 72 h; for inhibition at 198 µM / EC50: Homo sapiens; for inhibition at 198 µM: read-out: Top Inhibit; for EC50: Table 4 classes, read-out: Ab EC50
Method: as §1, §2, §3, §4

CCRF-CEM = assay: CellTiterGlo cell viability assay, CCRF-CEM; assay type: cell-based; settings: 72 h; for EC50: Table 4 classes, read-out: Ab EC50; for inhibition at 198 µM: read-out: Top Inh
Method: as §1, §2, §3, §4

OVCAR 3 = assay: CellTiterGlo cell viability assay, OVCAR 3; assay type: cell-based; settings: for inhibition at 198 µM: OVCAR-3, 72 h, read-out: Top Inhibit; for EC50: Table 4 classes, read-out: Ab EC50
Method: as §1, §2, §3, §4

MCF-7 = assay: CellTiterGlo cell viability assay, MCF-7; assay type: cell-based; settings: MCF-7, 72 h, percentage inhibition at the highest concentration tested; for inhibition at 198 µM: Homo sapiens, MCF7, 72 h, read-out: Top Inhibit
Method: as §1, §2, §3, §4

[1] = Homo sapiens, K562, 72 h, percentage inhibition at the highest concentration tested
[2] = Homo sapiens, absolute EC50, numeric values
[3] = Homo sapiens, percentage inhibition at the highest concentration tested
[4] = Homo sapiens, HT-29, 72 h, percentage inhibition at the highest concentration tested
[5] = Homo sapiens, K562, K 562, 72 h, Table 4 classes
[6] = percentage inhibition at the highest concentration tested
[7] = Homo sapiens, HT-29, 72 h, Table 4 classes

Row | SMILES | inhibition at 198 µM (K562; [1]) | inhibition at 198 µM (RL; [3]) | inhibition at 198 µM (HL-60; [3]) | inhibition at 198 µM (HT29; [4]) | inhibition at 198 µM (MOLT-4; [3]) | EC50 (KG-1; Homo sapiens) | inhibition at 198 µM (KG-1; [3]) | EC50 (K562; [5]) | EC50 (RPMI-8226; Homo sapiens) | inhibition at 198 µM (RPMI-8226; [3]) | inhibition at 198 µM (HepG2; [6]) | EC50 (HL-60; Homo sapiens, Table 4 classes) | EC50 (CCRF-CEM; Homo sapiens) | inhibition at 198 µM (CCRF-CEM; [3]) | inhibition at 198 µM (OVCAR 3; [3]) | EC50 (OVCAR 3; Homo sapiens, OVCAR 3, 72 h) | EC50 (HT29; [7]) | EC50 (MOLT-4; Homo sapiens, Table 4 classes) | inhibition at 198 µM (MCF-7) | EC50 (HepG2) | also measured
1 | C[C@H](NP(=O)(Oc1ccccc1)OP(=O)(O)OC[C@@H]1C[C@H](O)[C@H](n2cnc3c(N)ncnc32)O1)C(=O)OCc1ccccc1 (stereo partly drawn) [Example 6, 3′-Deoxyadenosine-5′-O-[phenyl(benzoxy-L-alaninyl)] Diphosphate Triethylammonium Salt] | 81% | 72% | 80% | 82% | 95% | – | – | – | – | – | – | – | – | – | – | – | – | – | – | – | EC50 (K562; Homo sapiens, K562, 72 h, absolute EC50, numeric values): 52300 nM; EC50 (RL; [2]): 88800 nM; EC50 (HL-60; [2]): 62500 nM; EC50 (Mia-Pa-Ca-2; absolute EC50, read-out: Ab EC50): 40900 nM; inhibition at 198 µM (Mia-Pa-Ca-2; percentage inhibition at the highest concentration tested, read-out: Top Inhibit): 95.7%; EC50 (HT29; Homo sapiens, HT-29, 72 h, absolute EC50, numeric values): 24300 nM; EC50 (MOLT-4; [2]): 14200 nM
2 | Nc1nc(Cl)nc2c1ncn2[C@@H]1O[C@H](COP(=O)(O)OP(=O)(N[C@@H](Cc2ccccc2)C(=O)OCc2ccccc2)Oc2ccccc2)C(O)[C@H]1F (stereo partly drawn) [Example 22, 2-Chloro-9-(2′-Deoxy-2′-fluoro-β-D-arabinofuranosyl)adenine-5′-O-[l-phenyl(benzoxy-L-phenylalaninyl)] Diphosphate Triethylammonium Salt] | 62% | 42% | 95% | 69% | 89% | < 200 nM | 92% | > 10000 nM | 1000 to 5000 nM | 86% | 47% | < 200 nM | < 200 nM | 99% | 73% | > 10000 nM | 200 to 1000 nM | < 200 nM | 50% | – | –
3 | Nc1nc(Cl)nc2c1ncn2[C@@H]1O[C@H](COP(=O)(O)OP(=O)(Oc2ccccc2)N2CCCC2C(=O)OCc2ccccc2)[C@H](O)C1F (stereo partly drawn) [Example 23, 2-Chloro-9-(2′-Deoxy-2′-fluoro-β-D-arabinofuranosyl)adenine-5′-O-[1-phenyl(benzoxy-L-prolinyl)] Diphosphate Triethylammonium Salt] | 35% | 39% | 96% | 68% | 89% | < 200 nM | 93% | > 10000 nM | > 10000 nM | 85% | 51% | < 200 nM | < 200 nM | 99% | 63% | > 10000 nM | 200 to 1000 nM | < 200 nM | 48% | 1000 to 5000 nM | –
4 | COC(=O)[C@H](CCSC)NP(=O)(Oc1ccccc1)OP(=O)(O)OC[C@H]1O[C@@H](n2cnc3c(N)nc(Cl)nc32)C(F)[C@H]1O (stereo partly drawn) [Example 24, 2-Chloro-9-(2′-Deoxy-2′-fluoro-β-D-arabinofuranosyl)adenine-5′-O-[l-phenyl(methoxy-L-metioninyl)] Diphosphate Triethylammonium Salt] | 49% | 39% | 95% | 70% | 88% | < 200 nM | 91% | > 10000 nM | > 10000 nM | 86% | 54% | < 200 nM | < 200 nM | 99% | 67% | > 10000 nM | 200 to 1000 nM | < 200 nM | 49% | 1000 to 5000 nM | –
5 | CCOC(=O)[C@@H](NP(=O)(Oc1ccccc1)OP(=O)(O)OC[C@H]1O[C@@H](n2cnc3c(N)nc(Cl)nc32)C(F)[C@H]1O)C(C)CC (stereo partly drawn) [Example 25, 2-Chloro-9-(2′-Deoxy-2′-fluoro-β-D-arabinofuranosyl)adenine-5′-O-[l-phenyl(ethoxy-L-isoleucinyl)] Diphosphate Triethylammonium Salt] | 33% | 44% | 95% | 67% | 86% | < 200 nM | 91% | > 10000 nM | 1000 to 5000 nM | 83% | 49% | < 200 nM | < 200 nM | 99% | 24% | > 10000 nM | 200 to 1000 nM | < 200 nM | 43% | – | –
6 | CCN(CC)CC.C[C@H](NP(=O)(Oc1cccc2ccccc12)OP(O)(=S)OC[C@H]1O[C@@H](n2cnc3c(N)nc(Cl)nc32)[C@@H](F)[C@@H]1O)C(=O)OCc1ccccc1 (stereo partly drawn) [Example 26, 2-Chloro-9-(2′-Deoxy-2′-fluoro-β-D-arabinofuranosyl)adenine-5′-O-[l-naphthyl(benzoxy-L-alaninyl)] phosphorothiol-phosphate Triethylammonium Salt] | – | – | – | – | – | – | – | – | – | – | – | – | – | – | – | – | – | – | – | – | EC50 (KG-1): < 200 nM; Top Inhibit (KG-1; [6]): 91%; EC50 (K562; K 562, 72 h, Table 4 classes): > 10000 nM; Top Inh (K562; K562, 72 h, percentage inhibition at the highest concentration tested): 69%; EC50 (RL; Table 4 classes): > 10000 nM; Top Inh (RL; [6]): 56%; EC50 (RPMI-8226): 1000 to 5000 nM; Top Inh (RPMI-8226; [6]): 93%; Top Inhibit (HepG2; [6]): 49%; EC50 (HL-60; Table 4 classes): < 200 nM; Top Inh (HL-60; [6]): 95%; EC50 (CCRF-CEM): < 200 nM; Top Inh (CCRF-CEM; [6]): 99%; EC50 (OVCAR 3; OVCAR 3, 72 h): > 10000 nM; Top Inhibit (OVCAR 3; OVCAR 3, 72 h, percentage inhibition at the highest concentration tested): 62%; EC50 (HT29; Table 4 classes): 200 to 1000 nM; Top Inhibit (HT29; [6]): 64%; EC50 (MOLT-4; Table 4 classes): < 200 nM; Top Inh (MOLT-4; [6]): 84%; Top Inhibit (MCF-7): 44%
